# Measurements reported in patent US20250312369A1, “ANTI-AGING AND ANTI-INFLAMMATORY COMPOSITIONS COMPRISING NICOTINAMIDE MONONUCLEOTIDE AND RESVERATROL AND USES THEREOF” (WONDERFEEL, priority 2022, published 2025).
# Tests used:
# [1] = test system: human lung epithelial cell line (A549); test: LDH release after hydrogen peroxide and hypoxic injury in A549 cells; assay type: cell-based; details: 100 micromolar H2O2, 18 hours at 37° C., 95% nitrogen and 5% carbon dioxide, treatment agents 10 micromolar in the media
# Experimental: In order to model cytoprotective effects of the invention, a reductionist in vitro model was employed wherein a human lung epithelial cell line (A549) was exposed to severe oxidant and hypoxic stress. Cultured A549 cells were placed in 96 well plates, incubated in Dulbecco's Modified Eagle's Medium (DMEM), and allowed to grow to confluence over 72 hours. Cellular injury was created by the addition into the media of 100 micromolar hydrogen peroxide (H2O2), followed by incubation at 37° C. for 18 hours in an atmosphere of 95% nitrogen and 5% carbon dioxide, which maintained a pH in the incubation media of 7.4. Three experimental arms were evaluated, using quadruplicate replicates, as follows: a) media control, b) NMN, and c) NMN plus resveratrol and hydroxytyrosol. A control arm was examined that was not exposed to hydrogen peroxide. The treatment agents were added such that their final concentration in the media was 10 micromolar. lactate dehydrogenase (LDH) was assayed in the media after 18 hours using a commercial kit, based upon a colorimetric change quantified by visible spectrophotometry.
# [2] = prediabetic women, clinical trial 2021; cited from earlier work
# [3] = test system: sirtuin-1; details: 500 mg/day, healthy and slightly overweight subjects; cited from earlier work
# [4] = animals and humans, even at high doses; cited from earlier work
smiles,measurement,setting,value
"NC(=O)c1ccc[n+]([C@@H]2O[C@H](COP(=O)([O-])O)[C@@H](O)[C@H]2O)c1 [NMN, 3-carbamoyl-1-[5-O-(hydroxyphosphinato)-β-D-ribofuranosyl] pyridinium]",reduction in the elevation in LDH release produced by addition of hydrogen peroxide alone,[1],14%
same,muscular insulin sensitivity,[2],improve muscular insulin sensitivity
"Oc1ccc(/C=C/c2cc(O)cc(O)c2)cc1 [resveratrol, 3,4′,5-trihydroxy-trans-stilbene]",gene expression and serum concentration of sirtuin-1,[3],higher gene expression and serum concentration of sirtuin-1
"C[N+](C)(C)[C@@H](Cc1c[nH]c(=S)[nH]1)C(=O)[O-] [ergothioneine, (2S)-3-(2-sulfanylidene-2,3-dihydro-1H-imidazol-4-yl)-2-(trimethylazaniumyl)propanoate]",toxicity or adverse effects associated with administration,[4],no toxicity or adverse effects
